Measurements: article PMC9359617 (Nature structural & molecular biology, 2022)
Read-outs that look alike come from different tables or passages of the source.

Assays:
CaChs2 [1] = biological target: T1, CaChs2 (Candida albicans, UniProt P30572); assay: CaChs2 inhibition assay; type: biochemical
T1 sequence (P30572 1-1009): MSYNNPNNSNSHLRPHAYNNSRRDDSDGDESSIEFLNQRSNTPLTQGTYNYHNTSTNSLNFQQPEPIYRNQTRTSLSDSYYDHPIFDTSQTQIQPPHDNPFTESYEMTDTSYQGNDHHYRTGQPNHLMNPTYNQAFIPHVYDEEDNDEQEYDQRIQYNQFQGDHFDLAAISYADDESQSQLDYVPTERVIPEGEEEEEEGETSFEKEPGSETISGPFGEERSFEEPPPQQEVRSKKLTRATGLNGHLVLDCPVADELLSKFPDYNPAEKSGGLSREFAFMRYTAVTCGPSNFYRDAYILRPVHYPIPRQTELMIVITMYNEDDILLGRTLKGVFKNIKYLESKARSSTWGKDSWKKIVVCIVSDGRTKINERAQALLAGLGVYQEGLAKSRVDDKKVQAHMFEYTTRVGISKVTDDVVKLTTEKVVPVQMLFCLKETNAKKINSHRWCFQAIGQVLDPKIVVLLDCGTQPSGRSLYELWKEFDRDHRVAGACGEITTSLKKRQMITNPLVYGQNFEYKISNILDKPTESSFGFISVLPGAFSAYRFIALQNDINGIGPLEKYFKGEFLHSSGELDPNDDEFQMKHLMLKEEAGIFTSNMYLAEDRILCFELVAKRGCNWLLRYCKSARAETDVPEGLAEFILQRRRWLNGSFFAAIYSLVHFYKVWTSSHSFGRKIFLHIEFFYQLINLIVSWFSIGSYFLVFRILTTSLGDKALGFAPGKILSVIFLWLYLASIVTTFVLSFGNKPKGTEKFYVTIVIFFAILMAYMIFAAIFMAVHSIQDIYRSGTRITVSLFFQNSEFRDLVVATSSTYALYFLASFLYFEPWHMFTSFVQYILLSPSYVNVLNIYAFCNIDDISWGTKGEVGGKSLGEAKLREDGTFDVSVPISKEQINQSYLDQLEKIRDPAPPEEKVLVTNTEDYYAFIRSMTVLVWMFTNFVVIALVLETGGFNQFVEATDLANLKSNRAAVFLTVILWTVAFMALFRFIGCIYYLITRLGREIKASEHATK

CaChs2 T631A = assay: CaChs2 inhibition assay, T631A mutant; type: biochemical, Candida albicans; conditions: alanine mutation of T631
CaChs2 WT = CaChs2 WT (Candida albicans, UniProt P30572); assay: Isothermal titration calorimetry, CaChs2 WT; type: binding
CaChs2 W647A = assay: Isothermal titration calorimetry, CaChs2 W647A; type: binding, Candida albicans; conditions: ITC
CaChs2 Q643A = CaChs2 Q643A (Candida albicans, UniProt P30572, Q643A); assay: Isothermal titration calorimetry, CaChs2 Q643A; type: binding; conditions: Q643A mutant, ITC
C. albicans = conditions: against C. albicans; lower end printed as < 0.5; cited from earlier work
CaChs2 [2] = biological target: T1, CaChs2; assay: CaChs2 activity assay; type: biochemical; conditions: purified recombinant CaChs2; formation of water-insoluble chitin polymers from UDP-GlcNAc
cryo-EM structure = biological target: the molecule itself; assay: cryo-EM structure

In the case of NC(=O)OC[C@H](O)[C@@H](O)[C@H](N)C(=O)N[C@H](C(=O)O)[C@H]1O[C@@H](n2cc(C(=O)O)c(=O)[nH]c2=O)[C@H](O)[C@@H]1O [polyoxin D], the Ki (CaChs2 [1]; purified CaChs2) is reported as 3200 ± 1400 nM and the “decrease of affinity for polyoxin D, mutant vs WT” value (CaChs2 T631A) is reported as “about threefold”.

In the case of C[C@@H]([C@H](N)C(=O)N[C@H](C(=O)O)[C@H]1O[C@@H](n2ccc(=O)[nH]c2=O)[C@H](O)[C@@H]1O)[C@H](O)c1ccc(O)cn1 [nikkomycin Z], the Ki (CaChs2 [1]) is reported as 1500 ± 500 nM, the “difference between Ki of the inhibitor and Km of UDP-GlcNAc” value (CaChs2 [1]; affinity of nikkomycin Z to CaChs2 compared with UDP-GlcNAc) is reported as “three orders of magnitude” and the Kd (CaChs2 WT) is reported as about 190 nM. For the same molecule, the “reduction of affinity to nikkomycin Z, mutant vs WT” value (CaChs2 W647A) was “about 18 fold”, the “effect of the mutation on affinity to nikkomycin Z” value (CaChs2 Q643A) was “only moderately affects the affinity” and the MIC80 (C. albicans) was 0.5 to 32 µg/mL.

CC(=O)N[C@H]1[C@@H](OP(=O)(O)OP(=O)(O)OC[C@H]2O[C@@H](n3ccc(=O)[nH]c3=O)[C@H](O)[C@@H]2O)O[C@H](CO)[C@@H](O)[C@@H]1O [UDP-GlcNAc] showed a Km (CaChs2 [2]) of 6 ± 0.7 mM and a kcat (CaChs2 [2]) of 8.6 ± 2.7 min−[1].

B1: Chs2 from Candida albicans (CaChs2), wild type (enzyme, UniProt P30572 1-1009, looked up)
chain: T1 sequence (P30572 1-1009)
In the case of B1, the “stoichiometry N” value (cryo-EM structure) is reported as 2.
